{"source": "patent US9439927B2", "about": "“Treatment of inflammatory bowel disease” (Glock Health GmbH, priority 2013, dated 2016)", "key": {"[1]": {"test_system": "IBD induced by administration of dextran sulfate sodium (DSS)", "experiment": "Stool consistency (stool score), DSS-induced IBD in mice", "type": "in vivo", "settings": "tenth day, FIG. 2", "procedure": "(§1) For five groups of 12 mice each (only 3 mice in the control), the experimental routine procedure frequently used in connection with the treatment of IBD was carried out, in which IBD is induced by administration of dextran sulfate sodium (DSS). This involved administering DSS in drinking water for five days (but not in the control group), and after that the particular test substance was administered orally. On the tenth day, the mice were sacrificed using CO2 and the colon was removed for examination."}, "TNF-α": {"test_system": "TNF-α", "experiment": "TNF-α mRNA by RT-PCR in intestinal tissue homogenates", "type": "in vivo, mice", "settings": "FIG. 10", "procedure": "as §1, with “examination. The individual groups were as follows:” for “examination.”\nTo objectify and quantify the effects determined from the histological examinations, further analyses of biochemical inflammation markers (TNF-α/IL-6/IL-1β mRNA by means of RT-PCR, MPO activity) from tissue homogenates of the relevant intestinal segments were carried out.\nTwo further proinflammatory cytokines were examined; the results are shown in FIG. 9 (IL-6) and 10 (TNF-α). Said figures show: • 2expΔΔct=the rise in expression for a particular gene (1=1×, 2=2×, etc.); • Control=control group; • DSS1.5=group 2; • DSS1.5+GHC1=group 3; • DSS1.5+GHC2=(inventive) group 4; • DSS1.5+5ASA=group 5; • **=a very significant difference in relation to the control group (control); • #=a significant difference in relation to the DDS1.5 group (group 2); • ##=a very significant difference in relation to the DDS1.5 group (group 2)."}, "[2]": {"test_system": "IBD induced by administration of dextran sulfate sodium (DSS)", "experiment": "Blood in stool, DSS-induced IBD in mice", "type": "in vivo", "design": "key to Blood in stool: + Blood in stool; − No blood in stool", "settings": "for Blood in stool: DSS in drinking water for five days, test substance orally from the sixth day", "procedure": "as §1, with “examination. The individual groups were as follows:” for “examination.”\nGroup 2: received only DSS.\nGroup 3: (GHC1) received DSS as described above and, from the sixth day, a clinoptilolite freed of heavy metals which was ground to a mean particle size of 3.5 μm and thus not in accordance with the invention.\nGroup 4: (GHC2) received, from the sixth day, the substance according to the invention.\nGroup 5: (5ASA) received, from the sixth day, sulfasalazine, a derivative of mesalazine, also termed 5-ASA."}, "intestinal epithelium": {"test_system": "intestinal epithelium", "experiment": "Histological analysis (hematoxylin and eosin staining) and colon damage score", "type": "in vivo, mice", "procedure": "as §1"}}}
{"smiles": "O=C(O)c1cc(/N=N/c2ccc(S(=O)(=O)Nc3ccccn3)cc2)ccc1O", "note": "[5ASA, sulfasalazine]", "values": [{"measurement": "Stool consistency, return to normal range", "setting": "[1]", "result": "completely within the normal range"}, {"measurement": "TNF-α expression (2expΔΔct)", "setting": "TNF-α", "result": "does not show a positive effect"}, {"measurement": "Blood in stool", "setting": "[2]; day 0", "result": "−"}, {"measurement": "Blood in stool", "setting": "[2]; day 2", "result": "−"}, {"measurement": "Blood in stool", "setting": "[2]; day 4", "result": "−"}, {"measurement": "Blood in stool", "setting": "[2]; day 6", "result": "+"}, {"measurement": "Blood in stool", "setting": "[2]; day 8", "result": "−"}, {"measurement": "Blood in stool", "setting": "[2]; day 10", "result": "−"}, {"measurement": "Days on which blood in stool was exhibited", "setting": "[2]; text summary of Table I", "result": "only on the sixth day"}, {"measurement": "Healing of the intestinal epithelium (histology)", "setting": "intestinal epithelium; hematoxylin and eosin staining, day 10, FIG. 5", "result": "distinctly improved healing of the intestinal epithelium"}, {"measurement": "Colon damage score", "setting": "intestinal epithelium; histo(patho)logical examinations, FIG. 6", "result": "good convergence"}]}
